Test results taken from patent publication US20250171459A1, “2-METHYL-4',5'-DIHYDROSPIRO[PIPERIDINE-4,7'-THIENO[2,3-C]PYRAN] DERIVATIVES AS INHIBITORS OF APOL1 AND METHODS OF USING SAME” (Vertex Pharmaceuticals Incorporated, priority 2022, published 2025).

Target: T1, APOL1 (Homo sapiens, UniProt O14791)
T1 sequence (O14791 1-398 S342G/I384M): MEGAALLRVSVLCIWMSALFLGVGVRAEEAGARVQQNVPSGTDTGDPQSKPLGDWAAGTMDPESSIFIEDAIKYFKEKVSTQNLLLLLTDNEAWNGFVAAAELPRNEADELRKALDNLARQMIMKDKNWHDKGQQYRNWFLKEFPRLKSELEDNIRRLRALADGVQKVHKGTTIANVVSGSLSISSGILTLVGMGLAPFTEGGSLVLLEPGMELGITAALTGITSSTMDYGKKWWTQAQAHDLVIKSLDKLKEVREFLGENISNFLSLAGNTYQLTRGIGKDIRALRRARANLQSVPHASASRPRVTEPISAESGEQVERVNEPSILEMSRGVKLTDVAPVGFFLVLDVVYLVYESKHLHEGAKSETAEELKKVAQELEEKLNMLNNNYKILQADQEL
Assay: MultiTox-Fluor Multiplex Cytotoxicity Assay in tet-inducible APOL1 T-REx-HEK293 cells (cell rescue, ratio of dead to live cells)
Assay type: cell-based
Conditions: tet-inducible transgenic APOL1 T-REx-HEK293 cell lines, 50 ng/mL tet, 24 hours; read-out: IP50 (i.e., IC50 for cell proliferation)
Source text: The MultiTox-Fluor Multiplex Cytotoxicity Assay is a single-reagent-addition, homogeneous, fluorescence assay that measures the number of live and dead cells simultaneously in culture wells. The assay measures cell viability and cytotoxicity by detecting two distinct protease activities. […] The substrate enters intact cells, where it is cleaved to generate a fluorescent signal proportional to the number of living cells. […] A ratio of dead to live cells is used to normalize data.
The MultiTox reagent was added to each well and placed back in the incubator for an additional 30 minutes. The plate was read on the EnVision plate reader. A ratio of dead to live cells was used to normalize, and data was imported, analyzed, and fit using Genedata Screener (Basel, Switzerland) software. Data was normalized using percent of control, no tet (100% viability), and 50 ng/mL tet treated (0% viability), and fit using Smart Fit. The reagents, methods, and complete protocol for the MultiTox assay are described below.
Cells were washed with DPBS and then trypsinized to dissociate from the flask. Media was used to quench the trypsin, cells were then pelleted at 200 g and resuspended in fresh cell assay media (DMEM, 2% Tet-free FBS, 2 mM L-glutamine, 100 Units/mL penicillin-streptomycin). […] The plates were then incubated at room temperature for one hour.
Tetracycline is needed to induce APOL1 expression. 1 mg/mL tet stock in water was diluted to 250 ng/mL (5×) in cell assay media.
Compounds were dispensed at 200 nL in DMSO. The final top concentration was 10 μM with a 10 point 3-fold dilution in duplicate in the MultiTox assay.
20 μL was transferred from the 5× tet plate to the ARP and mixed, then 5 μL of 5× tet and the compounds were transferred to the cell plate and mixed using the Bravo. The cell plate was placed in the humidified 37° C. 5% CO2 incubator for 24 hours.
The MultiTox-Fluor Multiplex Cytotoxicity Assay was performed in accordance with the manufacturer's protocol. After cells were incubated with tet and compound for 24 hours, 25 μL of 1× MultiTox reagent was added to each well using the Multidrop dispenser; the plates were placed on a plate shaker (600 rpm) for 2 minutes, then centrifuged briefly and placed back in the 37° C. incubator for 30 minutes. The cell viability (excitation: 400 nm, emission: 486 nm) and cytotoxicity (excitation: 485 nm, emission: 535 nm) were read using the EnVision plate reader. A ratio of dead (cytotoxicity) to live (viability) cells was reported. Data was exported and analyzed in Genedata. Data was normalized using percent of control, no tet (100% viability), and 50 ng/mL tet treated (0% viability), and fit using Smart Fit settings in Genedata.

Row | SMILES | IC50 [nM]
1 | C[C@H]1C[C@@]2(CCN1Cc1cccc(F)c1)OCCc1cc(Cl)sc12 [Compound 688] | 500 to 1000
2 | CCc1cc2c(s1)CCOC21CCN(Cc2cn(CCC(=O)NCCO)nn2)CC1 [Compound 1111] | 500 to 1000
3 | CCc1cc2c(s1)CCO[C@@]21CCN(Cc2cn(CC(C)(O)c3ccccc3)nn2)[C@@H](C)C1 (stereo partly drawn) [Compound 93] | 500 to 1000
4 | COC1CO[C@@]2(CCN(Cc3cnn(CCS(C)(=O)=O)c3)[C@@H](C)C2)c2sc(Cl)cc21 (single isomer, unassigned) [Compound 843, (2′S, 7R)-2-chloro-4-methoxy-2′-methyl-1′-[[1-(2-methylsulfonylethyl)pyrazol-4-yl]methyl]spiro[4,5-dihydrothieno[2,3-c]pyran-7,4′-piperidine]] | < 100
5 | CCc1cc2c(s1)CCO[C@@]21CCN(C[C@H]2C[C@@H](NC(=O)c3ccncc3C)C2)[C@@H](C)C1 [Compound 340] | < 100
6 | CCc1cc2c(s1)CCO[C@@]21CCN(Cc2cn(CCn3ccnc3)nn2)[C@@H](C)C1 [Compound 31] | 100 to 500
7 | CCc1cc2c(s1)CCOC21CCN(Cc2ccc(NC3CN(S(C)(=O)=O)C3)nc2)[C@@H](C)C1 (stereo partly drawn) [Compound 216] | < 100
8 | CCc1cc2c(s1)CCOC21CCN(Cc2csc(N3CCOCC3)n2)CC1 [Compound 1146] | 500 to 1000
9 | CCc1cc2c(s1)CCO[C@@]21CCN(CC2CN(C(=O)[C@@H](C)NS(C)(=O)=O)C2)[C@@H](C)C1 [Compound 473] | 100 to 500
10 | [2H]c1c(CC)sc2c1[C@]1(CCN(Cc3cn(CCS(C)(=O)=O)nn3)[C@@H](C)C1)OCC2 [Compound 527, (2′S,4R)-3-deuterio-2-ethyl-2′-methyl-1′-[[1-(2-methylsulfonylethyl)triazol-4-yl]methyl]spiro[6,7-dihydrothieno[3,2-c]pyran-4,4′-piperidine]] | < 100
11 | CCc1cc2c(s1)CCO[C@@]21CCN(Cc2cn(C3CN(S(=O)(=O)c4c[nH]cn4)C3)nn2)[C@@H](C)C1 [Compound 2] | < 100
12 | Cc1cncc(N2CCC(CN3CC[C@]4(C[C@@H]3C)OCCc3c4sc(Cl)c3CO)CC2)n1 [Compound 731] | 500 to 1000
13 | CC(O)c1c(C(F)(F)F)sc2c1CCO[C@@]21CCN(Cc2cnn(CCS(C)(=O)=O)c2)[C@@H](C)C1 (stereo partly drawn) [Compound 879] | < 100
14 | CCc1cc2c(s1)CCO[C@@]21CCN(CC2CN(C(=O)c3ncc(C)[nH]3)C2)[C@@H](C)C1 [Compound 470] | < 100
15 | CCc1cc2c(s1)[C@]1(CCN(Cc3cn(CCS(C)(=O)=O)nn3)[C@@H](C)C1)OCC2 [Compound 1036, (2′S, 7R)-2-ethyl-2′-methyl-1′-[[1-(2-methylsulfonylethyl)triazol-4-yl]methyl]spiro[4,5-dihydrothieno[2,3-c]pyran-7,4′-piperidine]] | < 100
16 | C[C@H]1C[C@@]2(CCN1Cc1cnn(CCS(C)(=O)=O)c1)OCCc1cc(Cl)sc12 [Compound 697, (2′S, 7R)-2-chloro-2′-methyl-1′-[[1-(2-methylsulfonylethyl)pyrazol-4-yl]methyl]spiro[4,5-dihydrothieno[2,3-c]pyran-7,4′-piperidine]] | < 100
17 | CCc1cc2c(s1)CCO[C@@]21CCN(Cc2cn(CCc3ncn[nH]3)nn2)[C@@H](C)C1 [Compound 67] | < 100
18 | CCc1sc2c(c1Br)[C@]1(CCN(Cc3cn(CCS(C)(=O)=O)nn3)[C@@H](C)C1)OCC2 [Compound 526, (2′S,4R)-3-bromo-2-ethyl-2′-methyl-1′-[[1-(2-methylsulfonylethyl)triazol-4-yl]methyl]spiro[6,7-dihydrothieno[3,2-c]pyran-4,4′-piperidine]] | 100 to 500
19 | CCc1cc2c(s1)CCOC21CCN(Cc2cnc(Nc3cccnc3)nc2)CC1 [Compound 1074] | < 100
20 | CCc1cc2c(s1)CCO[C@@]21CCN(Cc2cn(C3(CO)COC3)nn2)[C@@H](C)C1 [Compound 147] | 500 to 1000
21 | CCc1cc2c(s1)CCO[C@@]21CCN(CC#N)[C@@H](C)C1 [Compound 292] | 100 to 500

Row | SMILES | IC50 [nM]
22 | C[C@H](O)CN1CC[C@]2(C[C@@H]1C)OCCc1sc(Cl)cc12 [Compound 507] | 100 to 500
23 | C[C@H]1C[C@@]2(CCN1Cc1cn3c(n1)CCC3)OC[C@H](O)c1cc(Cl)sc12 [Compound 786] | 500 to 1000
24 | C[C@H]1C[C@@]2(CCN1Cc1cnn(Cc3nnco3)c1)OCCc1c2sc(C(F)(F)F)c1CO [Compound 919] | < 100
25 | CCc1cc2c(s1)CCO[C@@]21CCN(CC2CN(C(=O)c3ccc(=O)oc3)C2)[C@@H](C)C1 [Compound 463] | 100 to 500
26 | CCc1cc2c(s1)CCO[C@@]21CCN(C[C@H]2C[C@@H](NC(=O)COCC(F)(F)F)C2)[C@@H](C)C1 [Compound 301, N-[3-[[(2′S,4R)-2-ethyl-2′-methyl-spiro[6,7-dihydrothieno[3,2-c]pyran-4,4′-piperidine]-1′-yl]methyl]cyclobutyl]-2-(2,2,2-trifluoroethoxy)acetamide] | 100 to 500
27 | CCc1cc2c(s1)CCOC21CCN(Cc2ccc(NC3(COC)CC3)nc2)CC1 [Compound 1072] | 100 to 500
28 | COc1ccc(CN2CC[C@]3(C[C@@H]2C)OC[C@H](O)c2cc(Cl)sc23)cc1OCC(N)=O [Compound 772] | < 100
29 | CC(=O)NC1CO[C@@]2(CCN(Cc3cnn(CCS(C)(=O)=O)c3)[C@@H](C)C2)c2sc(Cl)cc21 (stereo partly drawn) [Compound 855, N-[(2′S, 7R)-2-chloro-2′-methyl-1′-[[1-(2-methylsulfonylethyl)pyrazol-4-yl]methyl]spiro[4,5-dihydrothieno[2,3-c]pyran-7,4′-piperidine]-4-yl]acetamide] | < 100
30 | CCc1cc2c(s1)CCO[C@@]21CCN(CC2CN(C(=O)[C@H]3CCC(=O)N3)C2)[C@@H](C)C1 [Compound 487] | 100 to 500
31 | CCc1cc2c(s1)CCO[C@@]21CCN(Cc2cn([C@@H]3CCN(C(=O)OC(C)(C)C)C3)nn2)[C@@H](C)C1 [Compound 15, tert-butyl (3R)-3-[4-[[(2′S,4R)-2-ethyl-2′-methyl-spiro[6,7-dihydrothieno[3,2-c]pyran-4,4′-piperidine]-1′-yl]methyl]triazol-1-yl]pyrrolidine-1-carboxylate] | 100 to 500
32 | C[C@H]1C[C@@]2(CCN1Cc1cn(CCCS(C)(=O)=O)nn1)OCCc1c2sc(C(F)(F)F)c1CO [Compound 1001] | 100 to 500
33 | CCc1cc2c(s1)CCO[C@@]21CCN(C[C@H]2C[C@@H](NC(=O)c3cc(C)[nH]n3)C2)[C@@H](C)C1 [Compound 326] | < 100
34 | C[C@H]1C[C@@]2(CCN1Cc1cnn(C)c1)OCC(C)(O)c1cc(Cl)sc12 (stereo partly drawn) [Compound 848, (2′S, 7R)-2-chloro-2′,4-dimethyl-1′-[(1-methylpyrazol-4-yl)methyl]spiro[5H-thieno[2,3-c]pyran-7,4′-piperidine]-4-ol] | < 100
35 | CCc1cc2c(s1)CCOC21CCN(Cc2cn(CC(O)C3CCCO3)nn2)C(C)C1 (stereo not drawn) [Compound 117] | < 100
36 | CCc1cc2c(s1)CCO[C@@]21CCN(Cc2cn(Cc3cnn(C)c3)nn2)[C@@H](C)C1 [Compound 49] | < 100
37 | CCc1cc2c(s1)CCO[C@@]21CCN(Cc2cn(CCCS(C)(=O)=O)nn2)[C@@H](C)C1 [Compound 183] | < 100
38 | COc1cncc(CN2CC[C@]3(C[C@@H]2C)OCCc2c3sc(Cl)c2CO)c1 [Compound 727] | 100 to 500
39 | Cc1cccc(CN2CC[C@]3(C[C@@H]2C)OCCc2cc(Cl)sc23)n1 [Compound 680] | 500 to 1000
40 | C[C@H]1C[C@@]2(CCN1Cc1cccc(OCC(N)=O)c1)OCCc1c2sc(Cl)c1CO [Compound 718] | 100 to 500
41 | CCc1cc2c(s1)CCOC21CCN(Cc2cn(CCS(=O)(=O)C3CC3)nn2)CC1 [Compound 1086] | 500 to 1000
42 | C[C@H]1CC2(CCN1Cc1cnn(C)c1)OC1CCCCC1c1cc(Cl)sc12 (stereo partly drawn) [Compound 1021, (2S)-2′-chloro-2-methyl-1-((1-methyl-1H-pyrazol-4-yl)methyl)-5a′,6′,7′,8′,9′,9a′-hexahydrospiro[piperidine-4,4′-thieno[2,3-c]chromene]] | 100 to 500
